What was measured:
CDK2/CycE = molecular target: T1, CDK2/CycE (Homo sapiens, UniProt P24941); assay: CDK2/CycE high ATP kinase assay (TR-FRET, Method 2b); assay type: biochemical; conditions: 2 mM ATP
T1 construct: GST; purchased ProQinase GmbH (Freiburg, Germany); host or cells: insect cells (Sf9)
Protocol: 2b. CDK2/CycE High ATP Kinase Assay:
CDK2/CycE-inhibitory activity of compounds of the present invention at 2 mM adenosine-tri-phosphate (ATP) was quantified employing the CDK2/CycE TR-FRET (TR-FRET=Time Resolved Fluorescence Resonance Energy Transfer) assay as described in the following paragraphs.
Recombinant fusion proteins of GST and human CDK2 and of GST and human CycE, expressed in insect cells (Sf9) and purified by Glutathion-Sepharose affinity chromatography, were purchase from ProQinase GmbH (Freiburg, Germany). As substrate for the kinase reaction biotinylated peptide biotin-Ttds-YISPLKSPYKISEG (C-terminus in amid form) was used which can be purchased e.g. from the company JERINI peptide technologies (Berlin, Germany).
(§1) For the assay 50 nl of a 100 fold concentrated solution of the test compound in DMSO was pipetted into a black low volume 384 well microtiter plate (Greiner Bio-One, Frickenhausen, Germany), 2 μl of a solution of CDK2/CycE in aqueous assay buffer [50 mM Tris/HCl pH 8.0, 10 mM MgCl2, 1.0 mM dithiothreitol, 0.1 mM sodium ortho-vanadate, 0.01% (v/v) Nonidet-P40 (Sigma)] were added and the mixture was incubated for 15 min at 22° C. to allow pre-binding of the test compounds to the enzyme before the start of the kinase reaction. Then the kinase reaction was started by the addition of 3 μl of a solution ATP (3.33 mM=>final conc. in the 5 μl assay volume is 2 mM) and substrate (1.25 μM=>final conc. in the 5 μl assay volume is 0.75 μM) in assay buffer and the resulting mixture was incubated for a reaction time of 25 min at 22° C. The concentration of CDK2/CycE was adjusted depending of the activity of the enzyme lot and was chosen appropriate to have the assay in the linear range, typical concentrations were in the range of 15 ng/ml. The reaction was stopped by the addition of 5 μl of a solution of TR-FRET detection reagents (0.2 μM streptavidine-XL665 [Cisbio Bioassays, Codolet, France] and 1 nM anti-RB(pSer807/pSer811)-antibody from BD Pharmingen [#558389] and 1.2 nM LANCE EU-W1024 labeled anti-mouse IgG antibody [Perkin-Elmer, product no. AD0077, as an alternative a Terbium-cryptate-labeled anti-mouse IgG antibody from Cisbio Bioassays can be used]) in an aqueous EDTA-solution (100 mM EDTA, 0.2% (w/v) bovine serum albumin in 100 mM HEPES pH 7.5).
(§2) The resulting mixture was incubated 1 h at 22° C. to allow the formation of complex between the phosphorylated biotinylated peptide and the detection reagents. Subsequently the amount of phosphorylated substrate was evaluated by measurement of the resonance energy transfer from the Eu-chelate to the streptavidine-XL. Therefore, the fluorescence emissions at 620 nm and 665 nm after excitation at 350 nm were measured in a TR-FRET reader, e.g. a Rubystar (BMG Labtechnologies, Offenburg, Germany) or a Viewlux (Perkin-Elmer). The ratio of the emissions at 665 nm and at […] was taken as the measure for the amount of phosphorylated substrate. The data were normalised (enzyme reaction without inhibitor=0% inhibition, all other assay components but no enzym=100% inhibition).

CDK9/CycT1 = molecular target: T2, CDK9/CycT1 (Homo sapiens, UniProt P50750); assay: CDK9/CycT1 kinase assay (TR-FRET, Method 1a); assay type: biochemical; conditions: 10 μM ATP; for IC50: Method 1a; for Selectivity CDK9 over CDK2: IC50 (CDK2)/IC50 (CDK9): Methods 1a and 2a
T2 construct: Recombinant full-length His-tagged human CDK9 and CycT1; His; purchased Invitrogen PV4131; host or cells: insect cells
T2 sequence (P50750 whole entry): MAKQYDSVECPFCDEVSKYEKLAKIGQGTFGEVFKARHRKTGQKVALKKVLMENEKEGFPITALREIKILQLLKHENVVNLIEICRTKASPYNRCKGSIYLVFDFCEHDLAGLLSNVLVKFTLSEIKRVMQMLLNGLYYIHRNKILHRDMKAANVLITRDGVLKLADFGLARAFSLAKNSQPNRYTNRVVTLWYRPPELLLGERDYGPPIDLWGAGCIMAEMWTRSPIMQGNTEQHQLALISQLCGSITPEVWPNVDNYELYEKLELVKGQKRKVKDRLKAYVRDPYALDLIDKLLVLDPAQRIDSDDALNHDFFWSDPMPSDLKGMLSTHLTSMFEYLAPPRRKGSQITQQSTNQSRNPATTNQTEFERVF
T2 sequence (O60563 whole entry partner): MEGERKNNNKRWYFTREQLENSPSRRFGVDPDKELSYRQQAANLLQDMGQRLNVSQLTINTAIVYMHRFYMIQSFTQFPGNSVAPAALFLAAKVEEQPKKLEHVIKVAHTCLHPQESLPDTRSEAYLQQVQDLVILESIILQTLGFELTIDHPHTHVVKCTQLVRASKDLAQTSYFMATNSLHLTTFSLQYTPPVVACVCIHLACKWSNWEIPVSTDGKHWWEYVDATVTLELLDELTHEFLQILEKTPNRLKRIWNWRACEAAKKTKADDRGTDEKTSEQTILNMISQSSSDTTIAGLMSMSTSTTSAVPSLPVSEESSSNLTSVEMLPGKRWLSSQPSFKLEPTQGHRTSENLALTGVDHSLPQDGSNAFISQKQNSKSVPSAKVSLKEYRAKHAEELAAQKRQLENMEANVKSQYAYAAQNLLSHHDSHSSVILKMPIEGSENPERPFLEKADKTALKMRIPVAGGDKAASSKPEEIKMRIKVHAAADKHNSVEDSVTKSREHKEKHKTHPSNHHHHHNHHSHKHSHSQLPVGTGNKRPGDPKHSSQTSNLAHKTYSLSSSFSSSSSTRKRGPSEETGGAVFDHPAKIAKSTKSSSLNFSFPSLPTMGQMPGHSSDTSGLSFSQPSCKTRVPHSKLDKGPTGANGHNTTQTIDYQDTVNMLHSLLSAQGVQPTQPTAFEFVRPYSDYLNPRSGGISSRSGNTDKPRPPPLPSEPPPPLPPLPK
From the text: 1a. CDK9/CycT1 Kinase Assay:
CDK9/CycT1-inhibitory activity of compounds of the present invention was quantified employing the CDK9/CycT1 TR-FRET assay as described in the following paragraphs:
Recombinant full-length His-tagged human CDK9 and CycT1, expressed in insect cells and purified by Ni-NTA affinity chromatography, were purchased from Invitrogen (Cat. No PV4131). As substrate for the kinase reaction biotinylated peptide biotin-Ttds-YISPLKSPYKISEG (C-terminus in amid form) was used which can be purchased e.g. from the company JERINI Peptide Technologies (Berlin, Germany).
as §1, with “CDK9/CycT1” for “CDK2/CycE”, “Then the kinase reaction was started by the addition of 3 μl of a solution ATP (3.33 mM=>final conc. in the 5 μl assay volume is 2 mM) and substrate (1.25 μM=>final conc. in the 5 μl assay volume is 0.75 μM) in assay buffer and the resulting mixture was incubated for a reaction time of 25 min at 22° C.” left out, “1 μg/mL.” for “15 ng/ml.”, “AD0077])” for “AD0077, as an alternative a Terbium-cryptate-labeled anti-mouse IgG antibody from Cisbio Bioassays can be used])”
as §2, with “nm was” for “nm were”, “a HTRF” for “a TR-FRET”

IC50 (CDK2/CycE)	IC50 (CDK9/CycT1)	Selectivity CDK9 over CDK2: IC50 (CDK2)/IC50 (CDK9) (CDK9/CycT1)	Compound
3350 nM	8.9 nM	29.4	CC(C)(C)OC(=O)N=S(C)(=O)Cc1cc2cc(c1)OCCCCNc1cc(F)ccc1-c1nc(ncc1F)N2 (racemic) [Example 15, (rac)-tert-butyl[{[16,20-difluoro-2,3,4,5-tetrahydro-1H,12H-13,17-(azeno)-11,7-(metheno)-6,1,12,14-benzoxatriazacyclononadecin-9-yl]methyl}(methyl)oxido-λ^6-sulfanylidene]carbamate]
227 nM	3.9 nM	7.7	CS(=N)(=O)Cc1cc2cc(c1)OCCCCNc1cc(F)ccc1-c1nc(ncc1F)N2 (racemic) [Example 16, (rac)-16,20-difluoro-9-[(S-methylsulfonimidoyl)methyl]-2,3,4,5-tetrahydro-1H-17,13-(azeno)-7,11-(metheno)-6,1,12,14-benzoxatriazacyclononadecine]
622 nM	4.2 nM	17.6	CN1CCCCNc2cc(F)ccc2-c2nc(ncc2F)Nc2cc(CS(C)(=N)=O)cc1c2.O=CO (racemic) [Example 17, (rac)-16,20-difluoro-6-methyl-9-[(S-methylsulfonimidoyl)methyl]-1,2,3,4,5,6-hexahydro-12H-17,13-(azeno)-11,7-(metheno)-1,6,12,14-benzotetraazacyclononadecine; salt with formic acid]
1410 nM	15 nM	24.7	C[S+]([O-])Cc1cc2nc(c1)OCCCCCc1cc(F)ccc1-c1cc(ncc1F)N2 (racemic) [Example 19, (rac)-2,19-difluoro-9-[(methylsulfinyl)methyl]-14,15,16,17-tetrahydro-6H,13H-7,11-(azeno)-5,1-(metheno)-12,4,6-benzoxadiazacyclononadecine]
921 nM	5.5 nM	29.5	CS(=N)(=O)Cc1cc2nc(c1)OCCCCCc1cc(F)ccc1-c1cc(ncc1F)N2 (racemic) [Example 20, (rac)-2,19-difluoro-9-[(S-methylsulfonimidoyl)methyl]-14,15,16,17-tetrahydro-6H,13H-7,11-(azeno)-5,1-(metheno)-12,4,6-benzoxadiazacyclononadecine]
1320 nM	5.2 nM	20.0	CN1CCCCOc2cc(F)ccc2-c2nc(ncc2F)Nc2cc(CS(C)(=N)=O)cc1c2 (racemic) [Example 23, (rac)-16,20-difluoro-6-methyl-9-[(S-methylsulfonimidoyl)methyl]-3,4,5,6-tetrahydro-2H,12H-13,17-(azeno)-11,7-(metheno)-1,6,12,14-benzoxatriazacyclononadecine]
> 20000 nM	91 nM	28.2	CC(C)(C)OC(=O)N=S(C)(=O)Cc1cc2cc(c1)Nc1ncc(F)c(n1)-c1ccc(F)cc1OCCCCN2 (racemic) [Example 24, (rac)-tert-butyl[{[16,20-difluoro-3,4,5,6-tetrahydro-2H,12H-13,17-(azeno)-11,7-(metheno)-1,6,12,14-benzoxatriazacyclononadecin-9-yl]methyl}(methyl)oxido-λ^6-sulfanylidene]carbamate]
531 nM	2.9 nM	28.1	CSCc1cc2nc(c1)Nc1cc(c(F)cn1)-c1ccc(F)cc1OCCCN2 [Example 1, 15,19-Difluoro-8-[(methylsulfanyl)methyl]-2,3,4,5-tetrahydro-11H-10,6-(azeno)-12,16-(metheno)-1,5,11,13-benzoxatriazacyclooctadecine]
> 20000 nM	36 nM	>556	CSCc1cc2nc(c1)OCCCCc1cc(F)ccc1-c1cc(ncc1F)N2 [Example 4, 2,18-Difluoro-9-[(methylsulfanyl)methyl]-13,14,15,16-tetrahydro-6H-7,11-(azeno)-5,1-(metheno)-12,4,6-benzoxadiazacyclooctadecine]
> 20000 nM	99 nM	25.9	CSCc1cc2nc(c1)OCCCCCc1cc(F)ccc1-c1cc(ncc1F)N2 [Example 18, 2,19-difluoro-9-[(methylsulfanyl)methyl]-14,15,16,17-tetrahydro-6H,13H-7,11-(azeno)-5,1-(metheno)-12,4,6-benzoxadiazacyclononadecine]

Source: patent US10214542B2, “Modified macrocyclic compounds” (BAYER PHARMA AKTIENGESELLSCHAFT, priority 2015, dated 2019)
